# Test results published in ChEMBL document CHEMBL2163249, “Exploration of natural compounds as sources of new bifunctional scaffolds targeting cholinesterases and beta amyloid aggregation: the case of chelerythrine” (Bioorg Med Chem, 2012).
# Legend:
# [1] = target: Acetylcholinesterase (Electrophorus electricus) (UniProt O42275); details: at 2 mg/mL
# Description: Inhibition of electric eel AChE at 2 mg/ml by Ellman's method
# [2] = target: Cholinesterase (Equus caballus) (UniProt P81908); details: at 2 mg/mL
# Chain of Cholinesterase (Equus caballus) (P81908 whole entry): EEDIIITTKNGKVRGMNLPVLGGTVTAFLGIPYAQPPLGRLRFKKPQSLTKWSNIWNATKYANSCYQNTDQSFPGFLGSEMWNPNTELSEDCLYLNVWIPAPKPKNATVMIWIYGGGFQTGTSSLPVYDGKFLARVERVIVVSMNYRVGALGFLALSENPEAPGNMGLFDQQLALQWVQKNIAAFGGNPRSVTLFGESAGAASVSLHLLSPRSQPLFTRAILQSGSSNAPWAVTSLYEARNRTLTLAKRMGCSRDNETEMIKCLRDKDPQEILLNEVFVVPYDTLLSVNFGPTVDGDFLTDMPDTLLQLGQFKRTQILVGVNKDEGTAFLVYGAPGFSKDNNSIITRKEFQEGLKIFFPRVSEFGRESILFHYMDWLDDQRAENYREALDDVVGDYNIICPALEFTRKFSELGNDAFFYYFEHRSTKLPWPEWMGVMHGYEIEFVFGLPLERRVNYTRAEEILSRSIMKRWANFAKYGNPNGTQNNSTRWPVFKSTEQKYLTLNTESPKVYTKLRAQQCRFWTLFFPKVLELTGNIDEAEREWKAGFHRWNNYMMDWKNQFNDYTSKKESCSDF
# Description: Inhibition of horse BChE at 2 mg/ml by Ellman's method
# Chain of Acetylcholinesterase (Electrophorus electricus) (O42275 24-633 limits assumed): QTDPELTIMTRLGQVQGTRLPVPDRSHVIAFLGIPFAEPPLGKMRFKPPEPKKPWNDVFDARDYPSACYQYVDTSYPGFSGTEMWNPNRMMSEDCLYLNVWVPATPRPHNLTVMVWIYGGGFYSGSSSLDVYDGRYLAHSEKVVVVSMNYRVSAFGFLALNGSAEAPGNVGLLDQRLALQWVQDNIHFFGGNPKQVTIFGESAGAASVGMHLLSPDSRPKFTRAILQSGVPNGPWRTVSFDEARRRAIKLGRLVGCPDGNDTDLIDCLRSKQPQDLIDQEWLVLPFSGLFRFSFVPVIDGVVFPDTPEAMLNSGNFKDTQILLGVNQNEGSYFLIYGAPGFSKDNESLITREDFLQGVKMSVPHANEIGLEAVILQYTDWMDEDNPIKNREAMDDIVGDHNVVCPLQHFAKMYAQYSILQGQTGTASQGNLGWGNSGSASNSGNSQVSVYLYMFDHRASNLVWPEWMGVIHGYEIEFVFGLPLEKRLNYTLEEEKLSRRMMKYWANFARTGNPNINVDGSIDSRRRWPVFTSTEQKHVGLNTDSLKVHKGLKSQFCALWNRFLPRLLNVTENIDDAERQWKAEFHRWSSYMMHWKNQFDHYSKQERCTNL
Compound,inhibition [1],inhibition [2]
C=C[C@@](C)(/C=C/c1ccc(O)cc1)CCC=C(C)C,-7.92%,13.4%
CC[C@H]1[C@@H]2C[C@H]3[C@@H]4N(C)c5ccccc5[C@]45C[C@@H]([C@@H]2[C@H]5O)N3[C@@H]1O,29.8%,22.3%
C/C1=C\CC(C)(C)/C=C/C(=O)/C(C)=C/CC1,-4.84%,4.2%
CN1C2CCCC1CC(=O)C2,16.5%,1.42%
C=C1C[C@]23C[C@@]1(O)CC[C@H]2[C@@]12C=C[C@H](O)[C@@](C)(C(=O)O1)[C@H]2[C@@H]3C(=O)O,-1.11%,-5.65%
COC(=O)C1=CCCN(C)C1,16.9%,0.29%
Cc1c2ccncc2c(C)c2c1[nH]c1ccccc12,-1.87%,44.1%
O=c1cc(-c2ccc(O)cc2)oc2cc(O)c([C@@H]3O[C@H](CO)[C@@H](O)[C@H](O)[C@H]3O)c(O)c12,20.7%,1.98%
COc1c(O)cc2c(c1O)[C@@H]1O[C@H](CO)[C@@H](O)[C@H](O)[C@H]1OC2=O,7.33%,-0.62%
COc1cc(-c2oc3cc(O)cc(O)c3c(=O)c2O[C@@H]2O[C@H](CO)[C@@H](O)[C@H](O)[C@H]2O)ccc1O,30.6%,1.08%
CCCCCCCCCCCCCC[C@@H](O)[C@@H](O)[C@@H](N)CO,24.4%,7.46%
C/C=C/C/C=C/CCC(=O)[C@H]1O[C@H]1C(N)=O,-4.02%,3.38%
OC[C@@H]1CCCN2CCCC[C@H]12,1.61%,-7.44%
COc1cc2c(cc1O)CCN[C@H]2C,10.8%,-4.77%
CC1=C(/C=C/C(C)=C\C=C\C(C)=C\C(=O)O)C(C)(C)CCC1,14.3%,-2.78%
CC[C@H]1CC[C@@]2(C)CN(CC)[C@@H]3[C@@H]4[C@@H](O)[C@H]2[C@@]13[C@@H]1C[C@@H]2CC[C@@]4(O)[C@H]1C(=O)O2,22.5%,-3.58%
C=C[C@]12CN(C)[C@@H]3[C@H]4CO[C@H](C[C@H]41)[C@]1(C(=O)Nc4ccccc41)[C@@H]32,6.89%,31.1%
Cc1cc(O)c2c(c1)C(=O)c1cc(O)cc(O)c1C2=O,24.3%,1.03%
CC1(C)[C@@H](O)CC[C@]2(C)[C@H]3C(=O)C=C4[C@@H]5C[C@@](C)(C(=O)O)CC[C@]5(C)CC[C@@]4(C)[C@]3(C)CC[C@@H]12,-3.12%,4.46%
CCN1C[C@]2(COC)CC[C@H](OC)[C@]34C5C[C@@H]6[C@@H](OC)C[C@@]7(OCO[C@@]7(C13)[C@@H](O)C24)C5[C@H]6OC (stereo not given in full),23.4%,-6.6%
COc1ccc(/C=C/C(=O)c2c(O)cc(OC)cc2OC)cc1,-6.03%,-9.95%
Cc1nccc2c1[nH]c1ccccc12,22.2%,39.4%

Compound,inhibition [1],inhibition [2]
CC1=C[C@]23C(=O)[C@@H](C=C(CO)[C@@H](O)[C@]2(O)[C@H]1O)[C@H]1[C@@H](C[C@H]3C)C1(C)C,-4.51%,-1.75%
CCCCCCCCCCCCC/C=C/[C@@H](O)[C@H](CO)NC(=O)CCCCC,9.07%,4.36%
CC[C@]1(O)C[C@H]2CN(CCc3c([nH]c4ccccc34)[C@@](C(=O)OC)(c3cc4c(cc3OC)N(C=O)[C@H]3[C@@](O)(C(=O)OC)[C@H](OC(C)=O)[C@]5(CC)C=CCN6CC[C@]43[C@@H]65)C2)C1,10.9%,2.81%
CC(=O)O[C@@H]1CC[C@@]2(C)[C@H](C1)[C@H](OC(C)=O)C[C@@H]1[C@@H]2C[C@H]2[C@@H]3CN4C[C@H](C)CC[C@H]4[C@H](C)[C@H]3CC[C@@]12O,26.8%,4.14%
C[C@]12CC[C@H](O)C[C@H]1CC[C@@H]1[C@@H]2CC[C@]2(C)[C@@H](C3=CC(=O)OC3)[C@@H](O)C[C@]12O,-1.84%,1.77%
CC1=C2C(=CO[C@H](C)[C@H]2C)C(O)=C(C(=O)O)C1=O,3.11%,11.3%
C=C1C(=O)[C@]23[C@H](CC[C@@H]1[C@@H]2O)[C@]12CO[C@@]3(O)[C@H](O)[C@H]1C(C)(C)CC[C@@H]2O,-3.57%,-8.92%
COc1c2ccoc2cc2oc(C)cc(=O)c12,7%,16.2%
C/C=C1/C[C@@H](C)[C@@](C)(O)C(=O)OCC2=CCN3CC[C@@H](OC1=O)[C@@H]23,7.46%,19.2%
C[C@@H]1CC[C@H]2[C@@H](C)C(=O)O[C@@H]3O[C@@]4(C)CC[C@@H]1[C@]32OO4,2.43%,35.6%
C=C(C)[C@H]1Cc2c(ccc3c2O[C@@H]2COc4cc(OC)c(OC)cc4[C@@H]2C3=O)O1,16.4%,6.43%
COc1cc(O)c2c(=O)c(O)c(-c3ccc(O)c(O)c3)oc2c1,23.7%,3.5%
COc1ccc(/C=C/c2cc(O)cc(O[C@@H]3O[C@H](CO)[C@@H](O)[C@H](O)[C@H]3O)c2)cc1O,-3.62%,-4.38%
CC1=CC(=O)C2=C(C)C[C@H](O)[C@@H]3[C@H](OC(=O)[C@H]3C)[C@@H]12,29.5%,2.68%
COc1ccc(C(=O)O[C@H]2CC[C@@]3(C)[C@@H]4CC[C@H]5[C@]6(O)C[C@H](O)[C@@]7(O)[C@@H](CN8C[C@@H](C)CC[C@H]8[C@@]7(C)O)[C@]6(O)C[C@@]53O[C@]24O)cc1OC,21.8%,-4.13%
N[C@H]1CONC1=O,1.18%,-5.13%
O[C@H]1[C@H]2[C@H](O)CCCN2C[C@H]1O,5.09%,-2.04%
COc1ccc2c(c1OC)C(=O)O[C@H]2[C@@H]1c2cc3c(cc2CCN1C)OCO3,9.75%,-1.4%
Cc1cccc2c3c(ccc12)C1=C(C(=O)C3=O)[C@@H](C)CO1,3.53%,-3.19%
CO[C@H](C)[C@](O)(C(=O)OCC1=CCN2CC[C@H](O)[C@@H]12)C(C)C,21.3%,1.48%
C/C=C1\CN2CC[C@]34C(=C(CC=O)[C@H]1C[C@H]23)Nc1ccccc14,21.1%,12%
COc1cc(CCC(C)=O)ccc1O,-5.32%,10.8%

Compound,inhibition [1],inhibition [2]
CC[C@@]1(O)C(=O)OCc2c1cc1n(c2=O)Cc2cc3cc(O)ccc3nc2-1,-5.24%,6.63%
CC1(C)C2CCC1(C(=O)O)C(=O)C2 (stereo not given),16.7%,-2.51%
CC1=C(/C=C/C(C)=C/C=C/C(C)=C/C(=O)O)C(C)(C)CCC1,9.3%,-0.7%
C=C[C@H]1CN2CC[C@H]1C[C@H]2[C@H](O)c1ccnc2ccc(OC)cc12,15.8%,24.7%
COc1ccc(CC2NCCc3cc(OC)c(OC)cc32)cc1OC (stereo not given),4.06%,7.36%
COc1cc(/C=C/C(=O)CC(=O)/C=C/c2ccc(O)c(OC)c2)ccc1O,-2.21%,2.41%
COc1cc2c3cc1Oc1cc(ccc1O)C[C@@H]1c4c(cc(OC)c(O)c4Oc4ccc(cc4)C[C@@H]3N(C)CC2)CC[N+]1(C)C,5.5%,3.03%
N#C[C@H](O[C@@H]1O[C@H](CO[C@@H]2O[C@H](CO)[C@@H](O)[C@H](O)[C@H]2O)[C@@H](O)[C@H](O)[C@H]1O)c1ccccc1,0.78%,5.7%
CO[C@@H]1[C@@H](OC)[C@H](C)[C@@](O)(CC(=O)O)O[C@H]1[C@H](C)[C@H]1O[C@@]2(CC[C@@](C)([C@H]3CC[C@@](C)([C@@H]4O[C@@H]([C@H]5O[C@](C)(O)[C@H](C)C[C@@H]5C)C[C@@H]4O[C@@H]4C[C@H](OC)[C@@H](OC)[C@H](C)O4)O3)O2)C[C@H](O)[C@H]1C,22.7%,-3.8%
CCN1C[C@]2(COC)[C@H](O)C[C@H](OC)[C@@]34[C@@H]5C[C@@]6(O)[C@H](OC(=O)c7ccccc7)[C@@H]5[C@@](OC(C)=O)([C@@H]([C@H](OC)[C@H]23)[C@@H]14)[C@@H](O)[C@@H]6OC,17.6%,3.01%
COC(=O)[C@H]1[C@H]2C[C@@H]3c4[nH]c5cc(OC)ccc5c4CCN3C[C@H]2C[C@@H](OC(=O)c2cc(OC)c(OC)c(OC)c2)[C@@H]1OC,5.06%,15.3%
COc1cc(CNC(=O)CCCC/C=C/C(C)C)ccc1O,-6.53%,6.29%
CCOC(=O)Oc1c(OC)cc(C(=O)O[C@@H]2C[C@@H]3CN4CCc5c([nH]c6cc(OC)ccc56)[C@H]4C[C@@H]3[C@H](C(=O)OC)[C@H]2OC)cc1OC,-6.1%,-6.04%
CN1[C@@H]2CC[C@H]1C[C@@H](OC(=O)C(CO)c1ccccc1)C2 (stereo not given in full),15.2%,4.01%
CO[C@H]1/C=C/O[C@@]2(C)Oc3c(C)c(O)c4c(O)c(c(/C=N/N5CCN(C)CC5)c(O)c4c3C2=O)NC(=O)/C(C)=C\C=C\[C@H](C)[C@H](O)[C@@H](C)[C@@H](O)[C@@H](C)[C@H](OC(C)=O)[C@@H]1C,16.2%,1.88%
Cc1coc2c1C(=O)C(=O)c1c-2ccc2c1CCCC2(C)C,13.1%,-0.66%
CO[C@H]1[C@@H](O)[C@@H](C)O[C@H](O[C@H]2[C@H](Oc3cccc4c(O)c5c(=O)oc6ccc(C)c7c(=O)oc(c34)c5c67)O[C@H](C)[C@H](O)[C@@H]2O)[C@@H]1O,17.5%,7.94%
CC(=O)O[C@H]1C(=O)[C@@]2(C)[C@H]([C@H](OC(=O)c3ccccc3)[C@]3(O)C[C@H](OC(=O)[C@H](O)[C@@H](NC(=O)c4ccccc4)c4ccccc4)C(C)=C1C3(C)C)[C@]1(OC(C)=O)CO[C@@H]1C[C@@H]2O,12.5%,-2.88%
CC(C)C[C@H]1C(=O)N2CCC[C@H]2[C@]2(O)O[C@](NC(=O)[C@@H]3C=C4c5cccc6[nH]c(Br)c(c56)C[C@H]4N(C)C3)(C(C)C)C(=O)N12,-0.33%,9.94%
CC1=NCCc2c1[nH]c1cc(O)ccc21,41.8%,34.5%
O=c1cc(-c2ccc(O)c(O)c2)oc2cc(O)c([C@@H]3O[C@H](CO)[C@@H](O)[C@H](O)[C@H]3O)c(O)c12,23.9%,-4.72%
